Reference: patent US11548883B2, “Compounds as autotaxin inhibitors and pharmaceutical compositions comprising the same” (LegoChem Biosciences, Inc., priority 2017, dated 2023)

Assays:
Type in all cases: biochemical
[1] = system: LPA production in blood serum; assay: Inhibitory activity on LPA production in human blood serum; details: human blood serum (h), 18:1 LPC added
[2] = system: LPA production in blood serum; assay: Inhibitory activity on LPA production in mouse blood serum; details: mouse blood serum (m), 18:1 LPC added
human ENPP2 = human ENPP2 (Homo sapiens (Human), UniProt Q13822); assay: Inhibitory activity on human ENPP2 (FS-3 assay); details: human ENPP2, FS-3 substrate, Table 2
Description: Two-fold dilution of each test compound solution (10 μM, 100% dimethyl sulfoxide) is carried out on 96-well V bottom plate (Costar 3363). After ten-fold dilution of each the test compound solution (100% dimethyl sulfoxide) with deionized distilled water, 10 μL of the diluted each compound solution (10% dimethyl sulfoxide) was aliquoted to a black flat bottom 96-well plate (Costar 3915).

SMILES | IC50 [1] [nM] | IC50 [2] [nM] | IC50 (human ENPP2) [nM]
O=C(Cn1cc(-c2cnc(NC3Cc4ccccc4C3)nc2)c(OCc2ccccc2)n1)N1CCc2[nH]nnc2C1 [Compound 63, 2-[3-(benzyloxy)-4-{2-[(2,3-dihydro-1H-inden-2-yl)amino]pyrimidin-5-yl}-1H-pyrazol-1-yl]-1-{1H,4H,5H,6H,7H-[1,2,3]triazolo[4,5-c]pyridin-5-yl}ethan-1-one] | 10 | 12 | –
O=C(Cn1cc(-c2cnc(NC3Cc4ccccc4C3)nc2)c(OCCN2CCOCC2)n1)N1CCc2[nH]nnc2C1 [Compound 66, 2-(4-{2-[(2,3-dihydro-1H-inden-2-yl)amino]pyrimidin-5-yl}-3-[2-(morpholin-4-yl)ethoxy]-1H-pyrazol-1-yl)-1-{1H,4H,5H,6H,7H-[1,2,3]triazolo[4,5-c]pyridin-5-yl}ethan-1-one] | – | 12 | 1.9
CCN1CC(Oc2nn(CC(=O)N3CCc4[nH]nnc4C3)cc2-c2cnc(NC3Cc4ccccc4C3)nc2)C1 [Compound 68, 2-(4-{2-[(2,3-dihydro-1H-inden-2-yl)amino]pyrimidin-5-yl}-3-[(1-ethylazetidin-3-yl)oxy]-1H-pyrazol-1-yl)-1-{1H,4H,5H,6H,7H-[1,2,3]triazolo[4,5-c]pyridin-5-yl}ethan-1-one] | – | 32 | 1.8
CCN1CCC(Oc2nn(CC(=O)N3CCc4[nH]nnc4C3)cc2-c2cnc(NC3Cc4ccccc4C3)nc2)CC1 [Compound 70, 2-(4-{2-[(2,3-dihydro-1H-inden-2-yl)amino]pyrimidin-5-yl}-3-[(1-ethylpiperidin-4-yl)oxy]-1H-pyrazol-1-yl)-1-{1H,4H,5H,6H,7H-[1,2,3]triazolo[4,5-c]pyridin-5-yl}ethan-1-one] | – | 11 | 2.3
O=C(O)c1ccc(COc2nn(CC(=O)N3CCc4[nH]nnc4C3)cc2-c2cnc(NC3Cc4ccccc4C3)nc2)cc1 [Compound 72, 4-{[(4-{2-[(2,3-dihydro-1H-inden-2-yl)amino]pyrimidin-5-yl}-1-(2-oxo-2-{1H,4H,5H,6H,7H-[1,2,3]triazolo[4,5-c]pyridin-5-yl}ethyl)-1H-pyrazol-3-yl)oxy]methyl}benzoic Acid] | – | 42 | 3.4
O=C(O)COc1nn(CC(=O)N2CCc3[nH]nnc3C2)cc1-c1cnc(NC2Cc3ccccc3C2)nc1 [Compound 73, 2-[(4-{2-[(2,3-dihydro-1H-inden-2-yl)amino]pyrimidin-5-yl}-1-(2-oxo-2-{1H,4H,5H,6H,7H-[1,2,3]triazolo[4,5-c]pyridin-5-yl}ethyl)-1H-pyrazol-3-yl)oxy]acetic Acid] | – | 69 | 3.7
CN(C)c1nn(CC(=O)N2CCc3[nH]nnc3C2)cc1-c1cnc(NC2Cc3ccccc3C2)nc1 [Compound 74, 2-(4-{2-[(2,3-dihydro-1H-inden-2-yl)amino]pyrimidin-5-yl}-3-(dimethylamino)-1H-pyrazol-1-yl)-1-{1H,4H,5H,6H,7H-[1,2,3]triazolo[4,5-c]pyridin-5-yl}ethan-1-one] | – | 15 | 1.7
CCc1nn(CC(=O)N2CCc3[nH]nnc3C2)cc1-c1cnc(NC2Cc3ccccc3C2)nc1 [Compound 79, 2-(4-{2-[(2,3-dihydro-1H-inden-2-yl)amino]pyrimidin-5-yl}-3-ethyl-1H-pyrazol-1-yl)-1-{1H,4H,5H,6H,7H-[1,2,3]triazolo[4,5-c]pyridin-5-yl}ethan-1-one] | 5 | – | 1.6
O=C(Cn1cc(-c2cnc(NC3Cc4ccccc4C3)nc2)c(CN2CCOCC2)n1)N1CCc2[nH]nnc2C1 [Compound 80, 2-(4-{2-[(2,3-dihydro-1H-inden-2-yl)amino]pyrimidin-5-yl}-3-(morpholin-4-ylmethyl)-1H-pyrazol-1-yl)-1-{1H,4H,5H,6H,7H-[1,2,3]triazolo[4,5-c]pyridin-5-yl}ethan-1-one] | – | 6 | < 1.56
O=C(Cn1cc(-c2cnc(NC3Cc4ccccc4C3)nc2)c(CN2CCCCC2)n1)N1CCc2[nH]nnc2C1 [Compound 81, 2-(4-{2-[(2,3-dihydro-1H-inden-2-yl)amino]pyrimidin-5-yl}-3-(piperidin-1-ylmethyl)-1H-pyrazol-1-yl)-1-{1H,4H,5H,6H,7H-[1,2,3]triazolo[4,5-c]pyridin-5-yl}ethan-1-one] | – | 5 | < 1.56
O=C1CN(Cc2nn(CC(=O)N3CCc4[nH]nnc4C3)cc2-c2cnc(NC3Cc4ccccc4C3)nc2)CCN1 [Compound 82, 4-[(4-{2-[(2,3-dihydro-1H-inden-2-yl)amino]pyrimidin-5-yl}-1-(2-oxo-2-{1H,4H,5H,6H,7H-[1,2,3]triazolo[4,5-c]pyridin-5-yl}ethyl)-1H-pyrazol-3-yl)methyl]piperazin-2-one] | – | 8 | < 1.56
O=C(Cn1cc(-c2cnc(NC3Cc4ccccc4C3)nc2)c(CN2CCc3ccccc3C2)n1)N1CCc2[nH]nnc2C1 [Compound 84, 2-(4-{2-[(2,3-dihydro-1H-inden-2-yl)amino]pyrimidin-5-yl}-3-(1,2,3,4-tetrahydroisoquinolin-2-ylmethyl)-1H-pyrazol-1-yl)-1-{1H,4H,5H,6H,7H-[1,2,3]triazolo[4,5-c]pyridin-5-yl}ethan-1-one] | – | 8 | 2.8
